Test results taken from patent US6914045B2, “Glycopeptide antibiotics” (Wyeth Holdings Corporation, priority 2001, dated 2005).
≈ marks a conversion by molar mass, not a printed value.

Columns and labels:
[1] = test system: Enterococcus sp.; assay: in vitro antibacterial evaluation, MIC by broth dilution; format: cell-based; conditions: broth dilution, 18 hours at 35° C.
Procedure, shortened: (§1)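 Broth dilution per NCCLS M7-A2 in Mueller-Hinton II medium, inoculum 5×10^5 CFU/mL, antibiotic range 64-0.06 μg/mL. MIC taken as lowest concentration inhibiting growth; Gram-positive panel includes recent clinical isolates resistant to methicillin, penicillin and/or vancomycin.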

[2] = test system: Staphylococcus sp.; assay: as above; format: cell-based; conditions: broth dilution, 18 hours at 35° C.; for MIC Staphylococcus aureus (ATCC 29213): strain ATCC 29213; for MIC Staphylococcus aureus (GC 1131): strain GC 1131; for MIC Staphylococcus aureus (GC 3051): strain GC 3051; for MIC Staphylococcus aureus (GC 3053): strain GC 3053; for MIC Staphylococcus aureus (GC 4541): strain GC 4541; for MIC Staphylococcus aureus (GC 4542): strain GC 4542; for MIC Staphylococcus aureus-SMITH (GC 4543): strain GC 4543; for MIC Staphylococcus aureus (GC 4544): strain GC 4544; for MIC Staphylococcus aureus (GC 4545): strain GC 4545; for MIC Staphylococcus haemolyticus (GC 4546): strain GC 4546; for MIC Coagulase Negative Staphylococcus (GC 4547): strain GC 4547; for MIC Coagulase Negative Staphylococcus (GC 4548): strain GC 4548; for MIC Coagulase Negative Staphylococcus (GC 4549): strain GC 4549; for MIC Coagulase Negative Staphylococcus (GC 4551): strain GC 4551
Procedure, shortened: as §1

[3] = test system: Streptococcus sp.; assay: as above; format: cell-based; conditions: broth dilution, 18 hours at 35° C.
Procedure, shortened: as §1

[4] = test system: Staphylococcus aureus-SMITH (GC 4543); assay: acute lethal infection in mice; format: in vivo; conditions: acute lethal infection, female CD-1 mice, intraperitoneal challenge, intravenous 30 min. after infection, 7 day survival
Procedure, shortened: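 Protocol: bacteria suspended in trypticase soy broth or hog gastric mucin injected ip into female CD-1 mice at a level killing untreated controls in 24-48 hr; compound given iv in saline or 5% dextrose 30 min post-challenge; five mice per dose; ED50 derived from pooled 7 day survival of three runs.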

[5] = anatomic pathology (histopathology of heart and kidney) in mice; format: in vivo; conditions: CD-1 mice, 20 mg/kg intravenously daily for 9 days, necropsy day 10, microscopic histopathology
Description: Samples of tissues from necropsied mice were formalin-fixed, paraffin-embedded, sectioned, stained with hematoxylin and eosin, and examined microscopically. Histopathologic findings were recorded. These findings were subjectively graded on a scale corresponding to slight, mild, moderate, marked and severe as compared to untreated controls.

[6] = test system: Escherichia coli; assay: in vitro antibacterial evaluation, MIC by broth dilution; format: cell-based; conditions: 18 hours at 35° C.
[7] = inoculum 5×10^5 CFU/mL, strain ATCC 29212
[8] = inoculum 5×10^5 CFU/mL, strain GC 2242
[9] = inoculum 5×10^5 CFU/mL, strain GC 2243
[10] = inoculum 5×10^5 CFU/mL, strain GC 2691
[11] = inoculum 5×10^5 CFU/mL, strain GC 3059
[12] = inoculum 5×10^5 CFU/mL, strain GC 4552
[13] = inoculum 5×10^5 CFU/mL, strain GC 4553
[14] = inoculum 5×10^5 CFU/mL, strain GC 4554
[15] = inoculum 5×10^5 CFU/mL, strain GC 4556
[16] = inoculum 5×10^5 CFU/mL, strain GC 4557
[17] = inoculum 5×10^5 CFU/mL, strain GC 4558
[18] = inoculum 5×10^5 CFU/mL, strain GC 6189
[19] = inoculum 5×10^5 CFU/mL, strain ATCC 6301
[20] = inoculum 5×10^5 CFU/mL, strain GC 1894
[21] = inoculum 5×10^5 CFU/mL, strain GC 4563
[22] = inoculum 5×10^5 CFU/mL, strain GC 4564
[23] = inoculum 5×10^5 CFU/mL, strain GC 4565

CC(C1CCCCC1)C1NC(=O)CNC(=O)C(CO)NC(=O)C(C(O)C2CNC(=N)N2C2OC(CO)C(O)C(O)C2O)NC(=O)C(C(O)C2CNC(=N)N2)NC(=O)C(Cc2ccc(OC3OC(CO)C(OC4OC5COC6(OC5C(O)C4O)C4CC5CC(C4)CC6C5)C(O)C3O)cc2)NC1=O (stereo not drawn) [Example 221, Cyclo[3-cyclohexyl-2-aminobutanoyl-O-[4-O-[4,6-O-(2-adamantylidene)hexopyranosyl]hexopyranosyl]tyrosyl-3-(2-iminoimidazolidin-4-yl)seryl-3-(3-hexopyranosyl-2-iminoimidazolidin-4-yl)serylserylglycyl]]
MIC Enterococcus avium (GC 4558) [1]: 2 mg/L (≈ 1.4 µM)
MIC Enterococcus faecalis (ATCC 29212) [1]: 2 mg/L (≈ 1.4 µM)
MIC Enterococcus faecalis (GC 2242) [1]: 2 mg/L (≈ 1.4 µM)
MIC Enterococcus faecalis (GC 2691) [1]: 2 mg/L (≈ 1.4 µM)
MIC Enterococcus faecalis (GC 3059) [1]: 1 mg/L (≈ 0.698 µM)
MIC Enterococcus faecalis (GC 4552) [1]: 2 mg/L (≈ 1.4 µM)
MIC Enterococcus faecalis (GC 4553) [1]: 2 mg/L (≈ 1.4 µM)
MIC Enterococcus faecalis (GC 4554) [1]: 2 mg/L (≈ 1.4 µM)
MIC Enterococcus faecalis (GC 6189) [1]: 1 mg/L (≈ 0.698 µM)
MIC Enterococcus faecium (GC 2243) [1]: 2 mg/L (≈ 1.4 µM)
MIC Enterococcus faecium (GC 4556) [1]: 2 mg/L (≈ 1.4 µM)
MIC Enterococcus faecium (GC 4557) [1]: 1 mg/L (≈ 0.698 µM)
MIC Enterococcus faecalis (ATCC 29212) [1, 7]: 2 mg/L (≈ 1.4 µM)
MIC Enterococcus faecalis (GC 2242) [1, 8]: 2 mg/L (≈ 1.4 µM)
MIC Enterococcus faecium (GC 2243) [1, 9]: 2 mg/L (≈ 1.4 µM)
MIC Enterococcus faecalis (GC 2691) [1, 10]: 2 mg/L (≈ 1.4 µM)
MIC Enterococcus faecalis (GC 3059) [1, 11]: 1 mg/L (≈ 0.698 µM)
MIC Enterococcus faecalis (GC 4552) [1, 12]: 2 mg/L (≈ 1.4 µM)
MIC Enterococcus faecalis (GC 4553) [1, 13]: 2 mg/L (≈ 1.4 µM)
MIC Enterococcus faecalis (GC 4554) [1, 14]: 2 mg/L (≈ 1.4 µM)
MIC Enterococcus faecium (GC 4556) [1, 15]: 2 mg/L (≈ 1.4 µM)
MIC Enterococcus faecium (GC 4557) [1, 16]: 1 mg/L (≈ 0.698 µM)
MIC Enterococcus avium (GC 4558) [1, 17]: 2 mg/L (≈ 1.4 µM)
MIC Enterococcus faecalis (GC 6189) [1, 18]: 1 mg/L (≈ 0.698 µM)
MIC Staphylococcus aureus (ATCC 29213) [2]: 1 mg/L (≈ 0.698 µM)
MIC Staphylococcus aureus (GC 1131) [2]: 2 mg/L (≈ 1.4 µM)
MIC Staphylococcus aureus (GC 3051) [2]: 2 mg/L (≈ 1.4 µM)
MIC Staphylococcus aureus (GC 3053) [2]: 1 mg/L (≈ 0.698 µM)
MIC Staphylococcus aureus (GC 4541) [2]: 2 mg/L (≈ 1.4 µM)
MIC Staphylococcus aureus (GC 4542) [2]: 2 mg/L (≈ 1.4 µM)
MIC Staphylococcus aureus-SMITH (GC 4543) [2]: 2 mg/L (≈ 1.4 µM)
MIC Staphylococcus aureus (GC 4544) [2]: 2 mg/L (≈ 1.4 µM)
MIC Staphylococcus aureus (GC 4545) [2]: 2 mg/L (≈ 1.4 µM)
MIC Staphylococcus haemolyticus (GC 4546) [2]: 2 mg/L (≈ 1.4 µM)
MIC Coagulase Negative Staphylococcus (GC 4547) [2]: 2 mg/L (≈ 1.4 µM)
MIC Coagulase Negative Staphylococcus (GC 4548) [2]: 1 mg/L (≈ 0.698 µM)
MIC Coagulase Negative Staphylococcus (GC 4549) [2]: 1 mg/L (≈ 0.698 µM)
MIC Coagulase Negative Staphylococcus (GC 4551) [2]: 2 mg/L (≈ 1.4 µM)
MIC Streptococcus agalactiae (GC 4564) [3]: <0.12 mg/L
MIC Streptococcus pneumoniae (ATCC 6301) [3]: <0.12 mg/L
MIC Streptococcus pneumoniae (GC 1894) [3]: <0.12 mg/L
MIC Streptococcus pneumoniae (GC 4565) [3]: <0.12 mg/L
MIC Streptococcus pyogenes (GC 4563) [3]: <0.12 mg/L
MIC Streptococcus pneumoniae (ATCC 6301) [3, 19]: <0.12 mg/L
MIC Streptococcus pneumoniae (GC 1894) [3, 20]: <0.12 mg/L
MIC Streptococcus pyogenes (GC 4563) [3, 21]: <0.12 mg/L
MIC Streptococcus agalactiae (GC 4564) [3, 22]: <0.12 mg/L
MIC Streptococcus pneumoniae (GC 4565) [3, 23]: <0.12 mg/L
median effective dose (ED50), Staphylococcus aureus-SMITH (GC 4543) [4]: 0.03 mg/kg
Anatomical Pathology (Day 10), Heart [5]: 0
Anatomical Pathology (Day 10), Kidney [5]: 0
MIC Escherichia coli (ATCC 25922) [6]: 64 mg/L (≈ 44.6 µM)
MIC Escherichia coli (GC 4559) [6]: 32 mg/L (≈ 22.3 µM)
MIC Escherichia coli (GC 4560) [6]: 2 mg/L (≈ 1.4 µM)

N=C1NCC(C(O)C2NC(=O)C(Cc3ccc(OC4OC(CO)C(OC5OC6COC7(OC6C(O)C5O)C5CC6CC(C5)CC7C6)C(O)C4O)cc3)NC(=O)C(Cc3ccccc3)NC(=O)CNC(=O)C(CO)NC(=O)C(C(O)C3CNC(=N)N3C3OC(CO)C(O)C(O)C3O)NC2=O)N1 (stereo not drawn) [Example 220]
MIC Enterococcus avium (GC 4558) [1]: 2 mg/L (≈ 1.41 µM)
MIC Enterococcus faecalis (ATCC 29212) [1]: 2 mg/L (≈ 1.41 µM)
MIC Enterococcus faecalis (GC 2242) [1]: 1 mg/L (≈ 0.707 µM)
MIC Enterococcus faecalis (GC 2691) [1]: 2 mg/L (≈ 1.41 µM)
MIC Enterococcus faecalis (GC 3059) [1]: 2 mg/L (≈ 1.41 µM)
MIC Enterococcus faecalis (GC 4552) [1]: 2 mg/L (≈ 1.41 µM)
MIC Enterococcus faecalis (GC 4553) [1]: 1 mg/L (≈ 0.707 µM)
MIC Enterococcus faecalis (GC 4554) [1]: 2 mg/L (≈ 1.41 µM)
MIC Enterococcus faecalis (GC 6189) [1]: 1 mg/L (≈ 0.707 µM)
MIC Enterococcus faecium (GC 2243) [1]: 1 mg/L (≈ 0.707 µM)
MIC Enterococcus faecium (GC 4556) [1]: 1 mg/L (≈ 0.707 µM)
MIC Enterococcus faecium (GC 4557) [1]: 1 mg/L (≈ 0.707 µM)
MIC Enterococcus faecalis (ATCC 29212) [1, 7]: 2 mg/L (≈ 1.41 µM)
MIC Enterococcus faecalis (GC 2242) [1, 8]: 1 mg/L (≈ 0.707 µM)
MIC Enterococcus faecium (GC 2243) [1, 9]: 1 mg/L (≈ 0.707 µM)
MIC Enterococcus faecalis (GC 2691) [1, 10]: 2 mg/L (≈ 1.41 µM)
MIC Enterococcus faecalis (GC 3059) [1, 11]: 2 mg/L (≈ 1.41 µM)
MIC Enterococcus faecalis (GC 4552) [1, 12]: 2 mg/L (≈ 1.41 µM)
MIC Enterococcus faecalis (GC 4553) [1, 13]: 1 mg/L (≈ 0.707 µM)
MIC Enterococcus faecalis (GC 4554) [1, 14]: 2 mg/L (≈ 1.41 µM)
MIC Enterococcus faecium (GC 4556) [1, 15]: 1 mg/L (≈ 0.707 µM)
MIC Enterococcus faecium (GC 4557) [1, 16]: 1 mg/L (≈ 0.707 µM)
MIC Enterococcus avium (GC 4558) [1, 17]: 2 mg/L (≈ 1.41 µM)
MIC Enterococcus faecalis (GC 6189) [1, 18]: 1 mg/L (≈ 0.707 µM)
MIC Staphylococcus aureus (ATCC 29213) [2]: 0.5 mg/L (≈ 0.354 µM)
MIC Staphylococcus aureus (GC 1131) [2]: 1 mg/L (≈ 0.707 µM)
MIC Staphylococcus aureus (GC 3051) [2]: 1 mg/L (≈ 0.707 µM)
MIC Staphylococcus aureus (GC 3053) [2]: 1 mg/L (≈ 0.707 µM)
MIC Staphylococcus aureus (GC 4541) [2]: 1 mg/L (≈ 0.707 µM)
MIC Staphylococcus aureus (GC 4542) [2]: 0.5 mg/L (≈ 0.354 µM)
MIC Staphylococcus aureus-SMITH (GC 4543) [2]: 1 mg/L (≈ 0.707 µM)
MIC Staphylococcus aureus (GC 4544) [2]: 1 mg/L (≈ 0.707 µM)
MIC Staphylococcus aureus (GC 4545) [2]: 0.5 mg/L (≈ 0.354 µM)
MIC Staphylococcus haemolyticus (GC 4546) [2]: 0.25 mg/L (≈ 0.177 µM)
MIC Coagulase Negative Staphylococcus (GC 4547) [2]: 0.5 mg/L (≈ 0.354 µM)
MIC Coagulase Negative Staphylococcus (GC 4548) [2]: 0.25 mg/L (≈ 0.177 µM)
MIC Coagulase Negative Staphylococcus (GC 4549) [2]: 0.25 mg/L (≈ 0.177 µM)
MIC Coagulase Negative Staphylococcus (GC 4551) [2]: 0.5 mg/L (≈ 0.354 µM)
MIC Streptococcus agalactiae (GC 4564) [3]: <0.06 mg/L
MIC Streptococcus pneumoniae (ATCC 6301) [3]: <0.06 mg/L
MIC Streptococcus pneumoniae (GC 1894) [3]: <0.06 mg/L
MIC Streptococcus pneumoniae (GC 4565) [3]: <0.06 mg/L
MIC Streptococcus pyogenes (GC 4563) [3]: <0.06 mg/L
MIC Streptococcus pneumoniae (ATCC 6301) [3, 19]: <0.06 mg/L
MIC Streptococcus pneumoniae (GC 1894) [3, 20]: <0.06 mg/L
MIC Streptococcus pyogenes (GC 4563) [3, 21]: <0.06 mg/L
MIC Streptococcus agalactiae (GC 4564) [3, 22]: <0.06 mg/L
MIC Streptococcus pneumoniae (GC 4565) [3, 23]: <0.06 mg/L
median effective dose (ED50), Staphylococcus aureus-SMITH (GC 4543) [4]: 0.19 mg/kg
Anatomical Pathology (Day 10), Heart [5]: 0
Anatomical Pathology (Day 10), Kidney [5]: +++
MIC Escherichia coli (ATCC 25922) [6]: 32 mg/L (≈ 22.6 µM)
MIC Escherichia coli (GC 4559) [6]: 16 mg/L (≈ 11.3 µM)
MIC Escherichia coli (GC 4560) [6]: 0.5 mg/L (≈ 0.354 µM)
